These results are taken from patent publication US7659299B2, “Compounds inhibiting the binding of sap for treating osteoarthritis” (Pentraxin Therapeutics Limited, priority 2003, dated 2010).

Several values for one entry are separate records, joined by “and”; a condition that tells them apart may be missing. Equal entries are not always repeated.

The target in test [1] is T1, SAP (Homo sapiens, UniProt P02743). Kind of test: Isothermal calorimetry: dissociation constants between SAP and compounds. The test is classed as binding. Particulars: for Kd: replicate measurements, read-out: Kd in micromoles per liter (replicate measurements). An excerpt:
Surface plasmon resonance (SPR) is a low throughput but powerfully informative method to identify compounds that are bound by, or themselves bind to SAP, either in a calcium dependent fashion or independently of calcium, for the purposes of the present invention. For example, low molecular weight compounds that inhibit binding of SAP to its macromolecular ligands, including target ligands relevant to the present invention, can be detected by their effect on the signal generated by fluid phase SAP binding to ligand immobilised on the solid phase (Example A). Furthermore, when SAP itself is immobilised on the solid phase in an SPR instrument, the interaction with it of test molecules provided in the fluid phase generates a signal that can be detected and quantified. Purified SAP immobilized within an SPR instrument gives a quantifiable signal when it is exposed to another molecule that forms a complex with the SAP, and this is distinct from the absence of such a signal if no complex is formed. […] Another low throughput but powerful direct method is isothermal calorimetry that measures the heat of interaction in solution between SAP and test compounds according to the present invention. The binding affinity can be measured precisely as a guide to potential efficacy. Typical results by this method for the dissociation constants, Kd, between SAP and various compounds are as follows: […]

The target of test [2] is T1, SAP. As to the kind of experiment: Inhibition of binding of 125I radiolabelled SAP to Neisseria meningitidis immobilized in microtitre plates. Particulars: for inhibition at 20 µM: compound 20 μM; for inhibition at 20 µM / inhibition at 2000 µM / inhibition at 0.2 µM / inhibition at 2 µM / inhibition at 200 µM: read-out: Percent inhibition of binding of radiolabelled SAP to immobilized Neisseria meningitidis; for inhibition at 2000 µM: compound 2 mM; for Inhibition of binding of SAP to meningococci, in words: summary of Table 1; for inhibition at 0.2 µM: compound 200 nM; for inhibition at 2 µM: compound 2 μM; for inhibition at 200 µM: compound 200 μM. Details: 5 μl of radiolabelled SAP in TN; from tissue. The protocol: A suspension of heat killed Neisseria meningitidis at 1×10^8 organisms per ml in PBS was dispensed to polystyrene microtitre plates at 50 μl volumes per well, and left overnight at 4° C. All wells were then washed three times with 200 μl volumes of PBS containing 0.05% v/v Tween 20, prior to equilibration for 2 min with 0.01M Tris buffered 0.14M NaCl/0.002M CaCl2 at pH 8.0 (TC buffer), containing 4% w/v BSA and 0.05%/v Tween 20 (TCBT buffer). The wells were then emptied before adding to each one the following reagents. […] For background, non-specific, non calcium dependent, binding in the presence of EDTA: 5 μl radiolabelled SAP in TN and 45 μl 0.01M Tris buffered 0.14M NaCl at pH 8.0 containing 11.1 mM EDTA, 4.4% w/v BSA and 0.06% w/v Tween 20 (TEBT buffer) to provide final concentrations of EDTA, 10 mM; BSA, 4%; Tween 20, 0.05%. […] All wells were then incubated at room temperature for 2 h before being washed three times with 200 μl volumes of TCBT, allowed to dry for 1 h at room temperature, and bound radiolabelled SAP was then counted.
The capacity of the compounds tested to inhibit binding of SAP to meningococci is expressed as the percentage by which SAP binding was reduced compared to binding in the absence of any inhibitor (Table 1).

Test [3] has as its target T1, SAP. Kind of test: Inhibition of binding of 125I radiolabelled SAP to native long chromatin immobilized in microtitre plates. Details: 5 μl of radiolabelled SAP in TN; from tissue. Particulars: for Inhibition of binding of SAP to chromatin, in words: Table 2; for inhibition at 0.2 µM: compound 200 nM; for inhibition at 0.2 µM / inhibition at 2 µM / inhibition at 20 µM / inhibition at 200 µM / inhibition at 2000 µM: read-out: Percent inhibition of binding of radiolabelled SAP to immobilized native long chromatin; for inhibition at 2 µM: compound 2 μM; for inhibition at 20 µM: compound 20 μM; for inhibition at 200 µM: compound 200 μM.

Test [4] concerns the target T1, SAP. Kind of test: Inhibition of binding of 125I radiolabelled SAP to influenza virus immobilized in microtitre plates. The following applies: for inhibition at 20 µM: compound 20 μM; for inhibition at 20 µM / inhibition at 200 µM / inhibition at 0.2 µM / inhibition at 2 µM / inhibition at 2000 µM: read-out: Percent inhibition of binding of radiolabelled SAP to immobilized influenza virus; for inhibition at 200 µM: compound 200 μM; for Inhibition of binding of SAP to immobilised influenza virus, in words: summary of Table 3; for inhibition at 0.2 µM: compound 200 nM; for inhibition at 2 µM: compound 2 μM; for inhibition at 2000 µM: compound 2 mM. Also noted: 5 μl of radiolabelled SAP in TN; from tissue. As to the method:
A concentrated suspension of purified influenza virus A/Shanghai/24/90 at 10 mg protein per ml in PBS was diluted 1:50 in PBS and then dispensed to polystyrene microtitre plates at 50 μl volumes per well, and left overnight at 4° C. All wells were then emptied before blocking by addition to each well of 200 μl of 2% w/v BSA in PBS and incubation at room temperature for 1 h. All wells were then washed three times with 200 μl volumes of PBS containing 0.05% v/v Tween 20, prior to equilibration for 2 min with 0.01M Tris buffered 0.14M NaCl/0.002M CaCl2 at pH 8.0 (TC buffer), containing 4% w/v BSA and 0.05% v/v Tween 20 (TCBT buffer). The wells were then emptied before adding to each one the following reagents. […] For background, non-specific, non calcium dependent, binding in the presence of EDTA: 5 μl radiolabelled SAP in TN and 45 μl 0.01M Tris buffered 0.14M NaCl at pH 8.0 containing 11.1 mM EDTA, 4.4% w/v BSA and 0.06% w/v Tween 20 (TEBT buffer) to provide final concentrations of EDTA, 10 mM; BSA, 4%; Tween 20, 0.05%. […] All wells were then incubated at room temperature for 2 h before being washed three times with 200 μl volumes of TCBT, allowed to dry for 1 h at room temperature, and bound radiolabelled SAP was then counted. The compounds tested in the experiment shown here were the same as those specified in Example B above.
The capacity of the compounds tested to inhibit binding of SAP to the immobilised influenza virus is expressed as the percentage by which SAP binding was reduced compared to binding in the absence of any inhibitor (Table 3).

For test [5], the target named is T1, SAP. As to the kind of experiment: Surface plasmon resonance: calcium dependent binding of SAP to immobilised synthetic Aβ-42 amyloid fibrils. An excerpt:
Surface plasmon resonance (SPR) is a low throughput but powerfully informative method to identify compounds that are bound by, or themselves bind to SAP, either in a calcium dependent fashion or independently of calcium, for the purposes of the present invention. For example, low molecular weight compounds that inhibit binding of SAP to its macromolecular ligands, including target ligands relevant to the present invention, can be detected by their effect on the signal generated by fluid phase SAP binding to ligand immobilised on the solid phase (Example A). Furthermore, when SAP itself is immobilised on the solid phase in an SPR instrument, the interaction with it of test molecules provided in the fluid phase generates a signal that can be detected and quantified. Purified SAP immobilized within an SPR instrument gives a quantifiable signal when it is exposed to another molecule that forms a complex with the SAP, and this is distinct from the absence of such a signal if no complex is formed. […] Another low throughput but powerful direct method is isothermal calorimetry that measures the heat of interaction in solution between SAP and test compounds according to the present invention. The binding affinity can be measured precisely as a guide to potential efficacy. Typical results by this method for the dissociation constants, Kd, between SAP and various compounds are as follows:
Synthetic Aβ-42 amyloid fibrils (28) were covalently immobilised on the reactant surface of the Fisons IAsys surface plasmon resonance instrument, and then exposed to isolated SAP (32) in solution in Tris-buffered physiological saline in the absence of calcium (shown as TN/N in the Figures). No binding of SAP occurred and thus no signal was generated. Introduction of calcium allowed the SAP to bind specifically to the immobilised amyloid fibrils, generating a readily detectable signal (FIG. 1). […]

T1 sequence (P02743 20-223): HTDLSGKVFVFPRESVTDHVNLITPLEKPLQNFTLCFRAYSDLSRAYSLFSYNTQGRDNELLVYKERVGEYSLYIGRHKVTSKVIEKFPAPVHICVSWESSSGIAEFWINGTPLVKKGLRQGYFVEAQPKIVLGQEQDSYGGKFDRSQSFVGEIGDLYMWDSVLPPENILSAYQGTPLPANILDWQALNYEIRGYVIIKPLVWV

`C[N+](C)(C)CCOP(=O)([O-])O` [Phosphocholine, reference compound]: the “Kd in micromoles per liter (replicate measurements)” value on SAP [1] was “No binding”. At SAP [2], the inhibition at 20 µM stood at 4%; the inhibition at 2000 µM was found to be 24%; the “Inhibition of binding of SAP to meningococci, in words” value is recorded as “virtually no effect”. At SAP [3], the “Inhibition of binding of SAP to chromatin, in words” value is listed as “virtually no effect”; the inhibition at 0.2 µM came to 2%; the inhibition at 2 µM is 0%; the inhibition at 20 µM is 0%. Moreover, at SAP [3], the inhibition at 200 µM was 3% and the inhibition at 2000 µM was found to be 19%. For the same compound, at SAP [4], the inhibition at 20 µM is 5%; the inhibition at 200 µM turned out to be 5%; the “Inhibition of binding of SAP to immobilised influenza virus, in words” value was “virtually no effect”.
As to `NCCOP(=O)(O)O` [Phosphoethanolamine, reference compound], the Kd at SAP [1] is 36 µM and 27 µM and 48 µM. For the same compound, at SAP [2], the inhibition at 0.2 µM was found to be 7%, the inhibition at 2 µM came to 18%, the inhibition at 20 µM was 32% and the inhibition at 200 µM came out at 41%. Besides, at SAP [2], the inhibition at 2000 µM was 95% and the “Inhibition of binding of SAP to meningococci, in words” value is reported as “inhibition at high concentration, but only modest effects when diluted”. Further, on SAP [3], the “Inhibition of binding of SAP to chromatin, in words” value is given as “inhibition at high concentration, but only modest effects when diluted”; the inhibition at 0.2 µM was 3%; the inhibition at 2 µM amounted to 9%; the inhibition at 20 µM was found to be 36%. Moreover, the inhibition at 200 µM at SAP [3] came out at 59%. The inhibition at 2000 µM on SAP [3] (compound 2 mM) was 94%. On SAP [4], the inhibition at 0.2 µM stood at 1%, the inhibition at 2 µM came out at 8%, the inhibition at 20 µM came out at 42% and the inhibition at 200 µM is 51%. Further, on SAP [4], the inhibition at 2000 µM is 69% and the “Inhibition of binding of SAP to immobilised influenza virus, in words” value was “inhibition at high concentration, but only modest effects when diluted”.
Consider `C[C@H](CS)C(=O)N1CCC[C@@H]1C(=O)O` [Ro-15-3479, 1-[(S)-3-Mercapto-2-methylpropionyl]-D-proline], for which the “Effect on SPR signal reflecting ligand binding by SAP” value at SAP [5] (50 μmol/l, added after SAP had bound, regenerated surface (FIG. 3)) is “completely reversed”. For the same compound, at SAP [5] (100 μmol/l, added before calcium (FIG. 2)), the “SPR signal on addition of calcium after SAP and compound” value was “no signal”. For the same compound, the “Effect on binding of SAP to immobilised amyloid fibrils and the corresponding SPR signal” value on SAP [5] (500 μmol/l in TC buffer, added after SAP had bound (FIG. 1)) is on record as “completely reversed the binding of SAP”. Further, on SAP [2], the inhibition at 0.2 µM came out at 3%, the inhibition at 2 µM was found to be 42%, the inhibition at 20 µM is 50% and the inhibition at 200 µM was determined as 54%. For the same compound, on SAP [4], the inhibition at 0.2 µM was 12%, the inhibition at 2 µM is 30%, the inhibition at 20 µM came to 40% and the inhibition at 200 µM is 51%.
Take `O=C(O)[C@H]1CCCN1C(=O)COc1ccc(OCC(=O)N2CCC[C@@H]2C(=O)O)cc1` [Ro-64-2856, (R)-1-[[4-[2-[(R)-2-Carboxy-pyrrolidin-1-yl]-2-oxo-ethoxy]-phenoxy]-acetyl]-pyrrolidine-2-carboxylic acid]: the Kd on SAP [1] was 0.019 µM and 0.02 µM. Besides, at SAP [2], the inhibition at 0.2 µM stood at 0%, the inhibition at 2 µM was 65%, the inhibition at 20 µM came to 74% and the inhibition at 200 µM came out at 65%. Further, the inhibition at 2000 µM at SAP [2] was 100%. On SAP [3], the inhibition at 0.2 µM came to 1%, the inhibition at 2 µM was 36%, the inhibition at 20 µM was 56% and the inhibition at 200 µM is 75%. Further, the inhibition at 2000 µM at SAP [3] (compound 2 mM) stood at 91%. For the same compound, on SAP [4], the inhibition at 0.2 µM came out at 3%, the inhibition at 2 µM was 77%, the inhibition at 20 µM was 82% and the inhibition at 200 µM was found to be 84%. Besides, the inhibition at 2000 µM at SAP [4] was found to be 87%.
